Tests used:
HDAC activity = experiment: Fluorescence-based whole cell HDAC enzyme assay in patients' peripheral white blood cells; format: in vivo, human
Description: At day 8 (72 h after the third dose), peripheral white blood cells were tested for HDAC activity by whole cell assay
Whole blood from either consenting healthy volunteers or consenting patients was centrifuged at 2500 rpm for 10 minutes at ambient temperature in a Sorvall RT-7 centrifuge (Mandel Scientific Co., Guelph, Ontario). Plasma was removed and buffy coat was collected. Five volumes of Erythrocyte Lysis Buffer (EL) (Qiagen Canada Inc., Mississauga, Ontario) were added into buffy coat. Buffy coat was incubated on ice for 20 minutes before it was centrifuged at 400 g for 10 minutes at 4° C. Supernatant was removed and buffy coat was washed twice with EL buffer and re-centrifuged. Buffy coat was resuspended in RPMI media and cells were counted with trypan blue exclusion. To isolate PBMCs, buffy coat cells were centrifuged over Lymphoprep (Axis-Shield, 1114544), and any remaining erythrocytes in the sample were lysed by treatment with EL lysis buffer (Qiagen, 79217). The cell pellets are washed and then re-suspended in RPMI containing 10% FBS.
(§1) Human patients with either solid tumors or leukemia/MDS diseases were enrolled in phase I studies with consensus forms. MGCD0103 were dosed into patients orally every other day (day 1, day 3, day 5 […]). Blood samples were withdrawled by using the Vacutainer sodium-heparin blood collection tubes (Becton Dickinson Laboratories, Franklin Lakes, N.J.) and shipped to the test site within 24 hours on ice-pack. Baseline samples were drawn immediately prior to the first drug dose, while the 24 hour samples were drawn at 24 hours post the first drug dose. The 48 hours samples were drawn at 48 hours post the first dose. For the 1 week samples, blood was drawn 72 hours after day 5 dose (3 accumulated doses during week 1).
Freshly trypsinized cells or cells in suspension were dispensed in 96-well black Costar E1A/RIA plates (Corning Inc., Corning, N.Y.). We typically used 5×10^4 to 2×10^5 cells per well, and 8×10^5 white blood (mouse or human) cells/per well. Small molecule substrate Boc-Lys(Ac)-AMC (Bachem Biosciences Inc., King of Prussia, Philadelphia) were added to cell suspension with the final concentration of 300 uM. Cells were placed in a 37° C. incubator with 5% CO2 for 90 minutes (in the case of white blood cells, we incubated for 60 min). Fluorescence was read immediately before adding stop mixture to get a background. […] Fluorescence was developed for 15 minutes at 37° C. and read in a fluorometer (SPECTRAMAX GeminiXS, Molecular Devices, Sunnyvale, Calif.) with an excitation wavelength at 360 nm, emission at 470 nm, and a cutoff of 435 nm.

Jurkat cells = experiment: IL-6 transcription in Jurkat cells; format: cell-based, human; details: 24 hours (FIG. 14)
Description: Quantitative PCR with SYBR Green I detection with Mastercycler® ep realplex (Eppendorf) was performed using LightCycler® 480 SYBR Green I Master (Roche Diagnostics). SYBR Green I assays were performed with 600 nM primers. All other reaction conditions were as described by the manufacturer. Amplification conditions were 5 minutes of initial denaturation at 95° C., followed by 40 cycles of each 15 seconds at 95° C., 15 seconds at 63.4° C., 20 seconds at 68° C., a melting curve from 60° C. to 95° C. was recorded. Quantification was performed using Pfaffl method, a relative quantification method in real-time PCR (Nucleic Acids Research 2001 29:2002-2007). Primers were synthesized by Invitrogen (Invitrogen-Canada, Burlington, Ont.).

histone H3 acetylation = experiment: Histone acetylation of nuclear extracts from white blood cells; format: in vivo, human; details: AML Patient A with clinical response (FIG. 9)
Description: Human white peripheral cells were resuspended in 50 ul cold lysis buffer (10 mM Tris-HCl pH8.0, 1.5 mM MgCl2, 5 mM KCl, 0.5% NP-40, 5 mM Na butyrate plus protease inhibitors) and incubated on ice for 10 min. Cells were centrifuged at […] in an IEC Micromax centrifuge (Fisher Scientific Ltd., Nepean, Ontario) at 4° C. for 10-15 min and nuclei collected. Nuclei were washed with 50 ul lysis buffer by centrifugation at 2000 rpm at 4° C. for 10-15 min. Nuclei were resuspended in 35 ul ice cold Nuclear Lysis buffer (50 mM HEPES pH7.5, 500 mM NaCl, 1% NP-40, 1 mM EDTA, 10% glycerol, 5 mM NaButyrate and protease inhibitors) and sonicated 10 seconds using a VirSonic 300 sonicator (VirTis, Gardiner, N.Y.). Lysed nuclei were centrifuged at 15000 rpm at 4° C. for 5 min and supernatant collected for ELISA.
Black plates were coated with 50 ul of diluted anti-Histone antibodies (H11-4, Chemicon, Temecula, Calif.) (1:1000 in TBS) and incubated at ambient temperature for 2 hours. Plates were washed twice with 50 ul of PBS and blocked with 1% BSA+0.1% TritonX-100 in PBS (50 ul) for 45 minutes. […] Fluoroscence development was allowed for 60 minutes in foil and plates were read on a fluorometer (Gemini XS, Molecular Devices, Sunnyvale, Calif.) at Excitation at 550 nm and emission at 610 nm with a cutoff of 590 nm (Auto PMT, 15 reads/well). Data were analyzed using Excel.

IL-6 = IL-6 protein levels in plasma by ELISA; format: in vivo, human; details: leukemia patients, Day 8, ELISA (FIG. 17)
Description: FIG. 17 Induction of plasma IL-6 from leukemia patients from treated with MGCD0103 at Day 8, analyzed by ELISA assays.
Patient plasma samples at […] were analyzed by ELISA
as §1
Blood from patients was centrifuged at 2500 RPM for 10 min at 10° C. Plasma was separated and frozen until used. Plasma was thawed, and spun again at 2500 RPM for 10 min at 10° C. The level of IL-6 was determined by ELISA (eBioscience, San Diego, Calif.), following the manufacturer's instructions. IL-6 concentration (pg/ml) in the samples was calculated from a standard curve generated by using standard IL-6 also provided in the kit. […] All the data was calculated and plotted using Excel.

## Nc1ccccc1NC(=O)c1ccc(CNc2nccc(-c3cccnc3)n2)cc1 [MGCD0103]
HDAC activity; AML Patient A with clinical response (FIG. 9)
  inhibition of HDAC activity in peripheral white cells: Time-dependent inhibition
HDAC activity; AML patient (Patient A) with clinical response, day 8
  HDAC inhibition: 68%
HDAC activity; patients with solid tumors, one week (three doses per week), day 8 (FIG. 7)
  HDAC inhibition in vivo in peripheral white blood cells: dose-dependent HDAC inhibition
HDAC activity; three other AML patients (no response), day 8
  average HDAC inhibition: < 5%
Jurkat cells
  dose-dependent induction of IL-6 transcription: dose-dependent induction
Histone H3 acetylation
  induction of histone H3 acetylation in peripheral white cells: induction
IL-6
  induction of plasma IL-6: induction
